Data reported in patent US20170107203A1, “HETEROCYCLIC INHIBITORS OF THE SODIUM CHANNEL” (EPIRUS BIOPHARMACEUTICALS, INC., priority 2014, published 2017).

Target: T1, human Nav1.7 (Homo sapiens, UniProt Q15858)
T1 construct: expressed in transfected cells
Assay: Assessment of Nav1.7 activity on PatchXpress (voltage dependence / slow inactivation parameters)
Format: cell-based
Details: compound at 10 μM, relative to 0.2% DMSO vehicle control; for hNav1.7: Reduction in current at 20 mV (normalized data) Delta Ratio: before/after 30 sec conditioning pulse at 20 mV; for hNav1.7: Shift in voltage dependence of inactivation (mV) Delta Vhalf: PatchXpress
Method in brief: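 HEK293F cells stably co-expressing hNav1.7 and β1 were recorded by automated patch clamp in TEA-based external solution (50 mM NaCl, pH 7.4) with CsF internal solution (pH 7.2). A variable conditioning prepulse inactivated channels, followed by a brief hyperpolarizing step and a depolarizing test pulse. Compounds at 10 μM were compared with 0.2% DMSO vehicle across four parameters.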

T1 sequence (Q15858 whole entry): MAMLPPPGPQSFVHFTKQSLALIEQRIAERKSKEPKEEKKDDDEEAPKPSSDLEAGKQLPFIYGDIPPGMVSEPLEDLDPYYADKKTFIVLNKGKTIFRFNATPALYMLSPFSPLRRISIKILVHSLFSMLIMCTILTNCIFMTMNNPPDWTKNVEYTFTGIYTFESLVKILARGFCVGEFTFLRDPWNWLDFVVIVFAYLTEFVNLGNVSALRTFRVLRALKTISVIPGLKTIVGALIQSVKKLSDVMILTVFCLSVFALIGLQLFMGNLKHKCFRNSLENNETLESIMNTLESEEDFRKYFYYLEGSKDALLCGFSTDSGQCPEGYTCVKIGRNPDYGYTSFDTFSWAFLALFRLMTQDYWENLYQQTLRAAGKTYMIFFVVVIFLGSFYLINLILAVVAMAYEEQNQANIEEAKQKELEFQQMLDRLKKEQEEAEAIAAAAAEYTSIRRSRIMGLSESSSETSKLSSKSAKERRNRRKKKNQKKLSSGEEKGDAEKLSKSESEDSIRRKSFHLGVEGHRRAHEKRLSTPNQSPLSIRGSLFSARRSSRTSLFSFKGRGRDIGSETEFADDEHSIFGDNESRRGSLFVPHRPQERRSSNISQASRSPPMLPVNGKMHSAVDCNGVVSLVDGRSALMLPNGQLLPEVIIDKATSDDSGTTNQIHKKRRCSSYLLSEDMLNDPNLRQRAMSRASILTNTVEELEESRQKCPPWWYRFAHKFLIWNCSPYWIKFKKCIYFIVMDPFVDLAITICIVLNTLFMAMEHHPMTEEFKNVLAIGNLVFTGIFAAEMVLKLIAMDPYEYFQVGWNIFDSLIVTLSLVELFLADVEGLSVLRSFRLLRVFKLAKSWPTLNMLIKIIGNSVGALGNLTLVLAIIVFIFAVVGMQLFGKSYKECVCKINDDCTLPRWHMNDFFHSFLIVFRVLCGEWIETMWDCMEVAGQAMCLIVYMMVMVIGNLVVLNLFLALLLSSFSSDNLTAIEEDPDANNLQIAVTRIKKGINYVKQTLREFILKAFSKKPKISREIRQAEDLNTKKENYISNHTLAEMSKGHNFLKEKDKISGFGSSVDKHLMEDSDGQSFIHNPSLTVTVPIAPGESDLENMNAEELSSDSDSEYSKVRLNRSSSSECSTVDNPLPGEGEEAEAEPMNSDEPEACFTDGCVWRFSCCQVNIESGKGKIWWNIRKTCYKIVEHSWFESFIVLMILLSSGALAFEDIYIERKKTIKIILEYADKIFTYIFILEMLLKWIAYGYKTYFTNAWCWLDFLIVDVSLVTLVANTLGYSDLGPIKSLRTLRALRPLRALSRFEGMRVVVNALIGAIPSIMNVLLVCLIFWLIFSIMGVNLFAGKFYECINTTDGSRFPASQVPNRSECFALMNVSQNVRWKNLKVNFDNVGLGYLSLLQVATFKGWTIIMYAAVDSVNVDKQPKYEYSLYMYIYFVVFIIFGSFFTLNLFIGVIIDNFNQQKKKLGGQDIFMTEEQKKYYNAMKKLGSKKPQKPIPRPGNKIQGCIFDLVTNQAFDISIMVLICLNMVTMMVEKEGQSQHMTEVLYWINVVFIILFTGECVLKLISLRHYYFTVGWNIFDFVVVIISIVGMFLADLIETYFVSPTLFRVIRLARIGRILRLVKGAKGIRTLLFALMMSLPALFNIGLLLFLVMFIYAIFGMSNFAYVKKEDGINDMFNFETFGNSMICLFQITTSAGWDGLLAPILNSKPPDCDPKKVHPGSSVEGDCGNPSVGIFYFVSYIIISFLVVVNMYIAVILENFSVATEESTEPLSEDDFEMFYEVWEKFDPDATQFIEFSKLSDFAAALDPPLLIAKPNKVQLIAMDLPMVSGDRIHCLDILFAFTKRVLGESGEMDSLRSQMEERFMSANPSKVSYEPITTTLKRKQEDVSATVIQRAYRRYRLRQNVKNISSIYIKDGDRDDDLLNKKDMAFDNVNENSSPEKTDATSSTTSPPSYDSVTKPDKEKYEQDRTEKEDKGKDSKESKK
T1 sequence (Q07699 19-218 partner): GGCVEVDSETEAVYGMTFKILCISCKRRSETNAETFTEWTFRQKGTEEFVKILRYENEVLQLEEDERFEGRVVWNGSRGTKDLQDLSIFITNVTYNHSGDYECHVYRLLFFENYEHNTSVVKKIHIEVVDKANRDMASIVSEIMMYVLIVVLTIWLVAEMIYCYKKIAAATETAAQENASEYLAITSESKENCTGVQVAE

Structure (SMILES) | hNav1.7: Reduction in current at 20 mV (normalized data) Delta Ratio | hNav1.7: Voltage dependence of activation (mV) VDEP | hNav1.7: Voltage dependence of fast inactivation (mV) VDEP | hNav1.7: Shift in voltage dependence of inactivation (mV) Delta Vhalf
N[C@H](Cc1cccc(C(F)(F)F)c1)C(=O)NCc1nc2c(C(F)(F)F)cc(C(F)(F)F)cc2[nH]1 [Compound 75, (R)-2-amino-N-((4,6-bis(trifluoromethyl)-1H-benzo[d]imidazol-2-yl)methyl)-3-(3-(trifluoromethyl)phenyl)propanamide] | −0.06 | −15.4 mV | −3.7 mV | −2.3 mV
CC(C)(C)OC(=O)N[C@H](Cc1cccc(C(F)(F)F)c1)C(=O)NCc1nc2ccc(-c3ccc(F)c(Cl)c3)cc2[nH]1 [Compound 76, tert-butyl (R)-(1-(((6-(3-chloro-4-fluorophenyl)-1H-benzo[d]imidazol-2-yl)methyl)amino)-1-oxo-3-(3-(trifluoromethyl)phenyl)propan-2-yl)carbamate] | −0.06 | −11.4 mV | −3.9 mV | −0.3 mV
COC[C@@H](NC(C)=O)C(=O)NCc1cc(C(F)(F)F)cc(C(F)(F)F)c1 [Compound 79, (R)-2-acetamido-N-(3,5-bis(trifluoromethyl)benzyl)-3-methoxypropanamide] | −0.04 | −15.2 mV | −7.9 mV | −5.8 mV
COC[C@@H](N)C(=O)NCC(=O)NCc1cc(C(F)(F)F)cc(C(F)(F)F)c1 [Compound 80, (R)-2-amino-N-(2-((3,5-bis(trifluoromethyl)benzyl)amino)-2-oxoethyl)-3-methoxypropanamide] | −0.03 | −9.3 mV | −3.8 mV | −7.2 mV
C[C@@H](NC(=O)CN1CCNCC1=O)c1ccc(OCC(F)(F)F)cn1 [Compound 81, (R)-2-(2-oxopiperazin-1-yl)-N-(1-(5-(2,2,2-trifluoroethoxy)pyridin-2-yl)ethyl)acetamide] | −0.02 | −10.3 mV | −5 mV | −2.8 mV
C[C@@H](NC(=O)[C@@H]1CCCN1)c1ccc(OCC(F)(F)F)cn1 [Compound 82, (S)-N-((R)-1-(5-(2,2,2-trifluoroethoxy)pyridin-2-yl)ethyl)pyrrolidine-2-carboxamide] | −0.02 | −5.6 mV | −8.7 mV | −2.5 mV
C[C@@H](NC(=O)[C@H]1CCCN1)c1ccc(OCC(F)(F)F)cn1 [Compound 83, (R)-N-((R)-1-(5-(2,2,2-trifluoroethoxy)pyridin-2-yl)ethyl)pyrrolidine-2-carboxamide] | 0.01 | −3.1 mV | −0.5 mV | −1.5 mV
O=C(Cc1nc2cc(F)cc(F)c2[nH]1)NC1CCNCC1 [Compound 89, 2-(4,6-difluoro-1H-benzo[d]imidazol-2-yl)-N-(piperidin-4-yl)acetamide] | −0.01 | −10.6 mV | −4.4 mV | −3.6 mV
COC[C@@H]1C(=O)N(Cc2cc(C(F)(F)F)cc(C(F)(F)F)c2)CCN1C(C)=O [Compound 92, (R)-4-acetyl-1-(3,5-bis(trifluoromethyl)benzyl)-3-(methoxymethyl)piperazin-2-one] | 0.01 | −7.1 mV | −3.9 mV | −2.2 mV

Now from value to compound:

hNav1.7: Reduction in current at 20 mV (normalized data) Delta Ratio | hNav1.7: Voltage dependence of activation (mV) VDEP | hNav1.7: Voltage dependence of fast inactivation (mV) VDEP | hNav1.7: Shift in voltage dependence of inactivation (mV) Delta Vhalf | Structure (SMILES)
−0.06 | −2.2 mV | −5 mV | −0.3 mV | CN(Cc1nc2c(C(F)(F)F)cc(C(F)(F)F)cc2[nH]1)C(=O)CNC(C)(C)C [Compound 77, N-((4,6-bis(trifluoromethyl)-1H-benzo[d]imidazol-2-yl)methyl)-2-(tert-butylamino)-N-methylacetamide]
−0.04 | −10.5 mV | −4.6 mV | −4.2 mV | NCC(=O)NCc1cc(C(F)(F)F)cc(C(F)(F)F)c1 [Compound 78, 2-amino-N-(3,5-bis(trifluoromethyl)benzyl)acetamide]
0.02 | −6.7 mV | −2.4 mV | 0 mV | FC(F)(F)c1cc(C(F)(F)F)c2nc([C@H]3CCCCN3)[nH]c2c1 [Compound 84, (R)-2-(piperidin-2-yl)-5,7-bis(trifluoromethyl)-1H-benzo[d]imidazole]
0.03 | −3.4 mV | −3.2 mV | 0.3 mV | O[C@@H]1CN[C@H](c2nc3cc(C(F)(F)F)cc(C(F)(F)F)c3[nH]2)C1 [Compound 85, (3S,5S)-5-(5,7-bis(trifluoromethyl)-1H-benzo[d]imidazol-2-yl)pyrrolidin-3-ol]
0.01 | −2.9 mV | 0.1 mV | 2.3 mV | NC1CCN(C(=O)Cc2nc3cc(C(F)(F)F)cc(C(F)(F)F)c3[nH]2)CC1 [Compound 90, 1-(4-aminopiperidin-1-yl)-2-(4,6-bis(trifluoromethyl)-1H-benzo[d]imidazol-2-yl)ethan-1-one]
0.01 | −5 mV | −4.1 mV | −3.1 mV | O=C1CNCCN1Cc1cc(C(F)(F)F)cc(C(F)(F)F)c1 [Compound 91, 1-(3,5-bis(trifluoromethyl)benzyl)piperazin-2-one]
